From patent publication US4268510A, “1,3-Benzoxazine trichloromethyl derivatives, compositions and use” (Imperial Chemical Industries Limited, priority 1978, dated 1981) come the findings set out here.

Broadly, the inhibition is how much of the control response was suppressed.

Values after ≈ are worked out from the molar mass of the structure shown.

The test relates to methane production from ruminal fluid. In words: in vitro assay of inhibition of methane production from ruminal fluid. It is filed as cell-based, steers (pooled rumen fluid). Conditions: 15-16 hours; for IC50: in vitro, diluted rumen fluid with dried ground hay, pH 6.9-7.0, 39° C., read-out: ED50, concentration of the test compound required to produce a 50% reduction in methane production; for inhibition at 1 µg/mL: at 1 μg./ml.; for inhibition at 1 µg/mL / inhibition at 3 µg/mL: in vitro rumen fluid, 39° C.; for inhibition at 3 µg/mL: at 3 μg./ml., read-out: % Methane Inhibition (compounds indicated by *). As to the method:
Rumen fluid is collected on a regular routine basis from two steers, which are fed on the same hay-plus-concentrate diet. Sampling time is standardised as far as possible, and the fluid from the two animals is pooled on a 50/50 basis. Large particulate matter is removed by filtering the pooled fluid through four layers of muslin cloth. The filtrate is then diluted in the ratio of one volume of filtrate to three volumes of an artificial rumen fluid (prepared as described by G. L. Bales et al., Journal of Dairy Science, 1976, volume 59, page 1850, but omitting acetic acid), and the pH of the mixture is adjusted to 6.9-7.0 with saturated aqueous sodium carbonate solution. Aliquots (50 ml.) of this mixture are dispensed into 100 ml. conical flasks containing dried ground hay (0.5 g.), and each flask is used to test a test compound at a particular concentration.
The test compound is added to the conical flask as a solution in ethanol, the flask is flushed with carbon dioxide gas, stoppered with a suba-seal, and incubated at 39° C. for 15-16 hours. After one hour, a narrow bore needle is inserted through the suba-seal to relieve the gas pressure, and the needle is withdrawn 30 minutes before the incubation is ended. Fermentation is then stopped by placing the flask in ice, and after 15 minutes cooling, the gas over the liquid is analysed for methane by gas chromatography, and the concentration of the test compound required to produce a 50% reduction in methane production (ED50 in μg./ml.) is calculated.
The test of methane inhibition described in Example 12 was repeated for various other compounds, to give the results shown below. The results are expressed as the percentage inhibition of methane production caused by 1 μg./ml. of a test compound, except for those compounds indicated by *, for which 3 μg./ml. was used.

With `CCCCOC(=O)c1ccc2c(c1)C(=O)NC(C(Cl)(Cl)Cl)O2` (stereo not drawn) [drawing 6; R3=CH3 (CH2)3 O . CO; R5=H, butyl 3,4-dihydro-4-oxo-2-trichloromethyl-2H-benzo[e]-[1,3]-oxazine-6-carboxylate], the IC50 worked out at 1 µg/mL (≈ 2.73 µM).
Same read-out and setting: to `O=C1NC(C(Cl)(Cl)Cl)Nc2ccccc21` (stereo not drawn) [drawing 5; R3=H; R5=H; R6=H, 1,2-dihydro-2-trichloromethylquinazolin-4-one] belongs 0.3 µg/mL (≈ 1.13 µM).
The compound `Clc1ccc2c(c1)COC(C(Cl)(Cl)Cl)N2` (stereo not drawn) [drawing 9; R1=H; R3=Cl; R11=H, 6-chloro-1,2-dihydro-2-trichloromethyl-4H-benzo[d]-[1,3]-oxazine] yielded an inhibition at 1 µg/mL of 100%.
Consider `CCC(=O)Oc1ccc2c(c1)C(=O)N(C(=O)CC)C(C(Cl)(Cl)Cl)O2` (stereo not drawn) [drawing 6; R3=C2 H5 CO . O; R5=C2 H5 CO, 3,4-dihydro-3-propionyl-6-propionyloxy-2-trichloromethyl-2H-benzo[e]-[1,3]-oxazin-4-one], for which the IC50 came out at 0.3 µg/mL (≈ 0.76 µM).
The same measure, in the same setting: then `CN1C(=O)c2ccccc2N(C)C1C(Cl)(Cl)Cl` (stereo not drawn) [drawing 5; R3=H; R5=CH3; R6=CH3], with 1 µg/mL (≈ 3.41 µM).
Consider `O=C(O)c1ccc2c(c1)C(=O)NC(C(Cl)(Cl)Cl)O2` (stereo not drawn) [drawing 6; R3=HO . CO; R5=H, 3,4-dihydro-4-oxo-2-trichloromethyl-2H-benzo[e]-[1,3]-oxazine-6-carboxylicacid], for which the IC50 came out at 0.3 µg/mL (≈ 0.966 µM).
Turning to `CC(=O)N1C(=O)c2ccccc2N(C(C)=O)C1C(Cl)(Cl)Cl` (stereo not drawn) [drawing 10; R3=H; R5=CH3 CO; R6=CH3 CO, 1,3-diacetyl-1,2-dihydro-2-trichloromethylquinazolin-4-one], 1 µg/mL produced 90% inhibition.
In the case of `CCCOC(=O)C1OC(C(Cl)(Cl)Cl)Nc2ccccc21` (stereo not drawn) [drawing 9; R1=H; R3=H; R11=n-C3 H7 O . CO, propyl 1,2-dihydro-2-trichloromethyl-4H-benzo[d]-[1,3]-oxazine-4-carboxylate], the inhibition at 1 µg/mL came to 31%.
On the same count and under the same terms, to `Cc1cccc2c1NC(C(Cl)(Cl)Cl)OC2` (stereo not drawn) [drawing 9; R1=CH3; R3=H; R11=H, 1,2-dihydro-8-methyl-2-trichloromethyl-4H-benzo[d]-[1,3]-oxazine] belongs 100%.
As for `CCCNC(=O)c1ccc2c(c1)C(=O)NC(C(Cl)(Cl)Cl)O2` (stereo not drawn) [drawing 6; R3=CH3 (CH2)2 NH . CO; R5=H, 3,4-dihydro-4-oxo-N-propyl-2-trichloromethyl-2H-benzo[e]-[1,3]-oxazine-6-carboxamide], the IC50 worked out at 0.3 µg/mL (≈ 0.853 µM).
Same read-out and setting: then `COc1ccc2c(c1)C(=O)NC(C(Cl)(Cl)Cl)O2` (stereo not drawn) [drawing 6; R3=CH3 O; R5=H, 3,4-dihydro-6-methoxy-2-trichloromethyl-2H-benzo[e]-[1,3]-oxazin-4-one], with 0.5 µg/mL (≈ 1.69 µM).
With `CCOC(=O)C1OC(C(Cl)(Cl)Cl)Nc2ccccc21` (stereo not drawn) [drawing 9; R1=H; R3=H; R11=C2 H5 O . CO, ethyl 1,2-dihydro-2-trichloromethyl-4H-benzo[d]-[1,3]oxazine-4-carboxylate], 1 µg/mL produced 24% inhibition.
Turning to `O=C1NC(C(Cl)(Cl)Cl)Oc2ccc(OCc3ccccc3)cc21` (stereo not drawn) [drawing 6; R3=C6 H5 . CH2 O; R5=H, 6-benzyloxy-3,4-dihydro-2-trichloromethyl-2H-benzo[e]-[1,3]-oxazin-4-one], the IC50 turned out to be 10 µg/mL (≈ 26.8 µM).
As to `O=[N+]([O-])c1ccc2c(c1)COC(C(Cl)(Cl)Cl)N2` (stereo not drawn) [drawing 7; R3=NO2, 1,2-dihydro-6-nitro-2-trichloromethyl-4H-benzo[d]-[1,3]oxazine], the IC50 was 0.5 µg/mL (≈ 1.68 µM).
Still for that read-out and setting: to `O=C1NC(C(Cl)(Cl)Cl)Oc2ccc(O)cc21` (stereo not drawn) [drawing 6; R3=HO; R5=H, 3,4-dihydro-6-hydroxy-2-trichloromethyl-2H-benzo[e]-[1,3]-oxazin-4-one] belongs 0.5 µg/mL (≈ 1.77 µM).
Take `O=C(O)c1ccc2c(c1)C(=O)NC(C(Cl)(Cl)Cl)N2` (stereo not drawn) [drawing 10; R3=COOH; R5=H; R6=H, 1,2-dihydro-4-oxo-2-trichloromethylquinazoline-6-carboxylic acid]: the inhibition at 3 µg/mL came out at 5%.
Regarding `CC(=O)N1C(=O)c2ccccc2OC1C(Cl)(Cl)Cl` (stereo not drawn) [drawing 6; R3=H; R5=CH3 CO, 3-acetyl-3,4-dihydro-2-trichloromethyl-2H-benzo[e]-[1,3]-oxazin-4-one], the IC50 was 1 µg/mL (≈ 3.24 µM).
Turning to `N#Cc1ccc2c(c1)C(=O)NC(C(Cl)(Cl)Cl)O2` (stereo not drawn) [drawing 8; R1=H; R3=CN; R5=H, 3,4-dihydro-4-oxo-2-trichloromethyl-2H-benzo[e]-[1,3]-oxazine-6-carbonitrile], the inhibition at 3 µg/mL was found to be 87%.
On to `ClC(Cl)(Cl)C1Nc2ccc(I)cc2CO1` (stereo not drawn) [drawing 7; R3=I], for which the IC50 stood at 1 µg/mL (≈ 2.64 µM).
On the same count and under the same terms, to `Cc1ccc2c(c1)COC(C(Cl)(Cl)Cl)N2` (stereo not drawn) [drawing 7; R3=CH3, 1,2-dihydro-6-methyl-2-trichloromethyl-4H-benzo[d]-[1,3]oxazine] belongs 3 µg/mL (≈ 11.3 µM); to `O=C1NC(C(Cl)(Cl)Cl)Nc2ccc([N+](=O)[O-])cc21` (stereo not drawn) [drawing 5; R3=NO2; R5=H; R6=H, 1,2-dihydro-6-nitro-2-trichloromethylquinazolin-4-one], 3 µg/mL (≈ 9.66 µM).
In turn, `O=C1NC(C(Cl)(Cl)Cl)Oc2ccc(C=NO)cc21` (stereo not drawn) [drawing 8; R1=H; R3=HO . N:CH; R5=H, 3,4-dihydro-6-hydroxyiminomethyl-2-trichloromethyl-2-H-benzo[e]-[1,3]-oxazin-4-one] yielded an inhibition at 1 µg/mL of 41%.
Still for that read-out and setting: to `CC(=O)Oc1ccc2c(c1)COC(C(Cl)(Cl)Cl)N2` (stereo not drawn) [drawing 9; R1=H; R3=CH3 CO . O; R11=H, 6-acetoxy-1,2-dihydro-2-trichloromethyl-4H-benzo[d]-[1,3]-oxazine] belongs 30%.
As for `CN1c2ccccc2C(=O)NC1C(Cl)(Cl)Cl` (stereo not drawn) [drawing 5; R3=H; R5=H; R6=CH3], the IC50 amounted to 0.3 µg/mL (≈ 1.07 µM).
On the same count and under the same terms, then `COc1ccc2c(c1)C(=O)N(C)C(C(Cl)(Cl)Cl)O2` (stereo not drawn) [drawing 6; R3=CH3 O; R5=CH3, 3,4-dihydro-6-methoxy-3-methyl-2-trichloromethyl-2H-benzo[e]-[1,3]-oxazin-4-one], with 3 µg/mL (≈ 9.66 µM); and `O=C(Oc1ccc2c(c1)C(=O)NC(C(Cl)(Cl)Cl)O2)c1ccc(Cl)cc1` (stereo not drawn) [drawing 6; R3=p-Cl . C6 H4 CO . O; R5=H, 6-p-chlorobenzoyloxy-3,4-dihydro-2-trichloromethyl-2H-benzo[e]-[1,3]-oxazin-4-one], with 1 µg/mL (≈ 2.37 µM); and `O=C1NC(C(Cl)(Cl)Cl)Oc2ccc([N+](=O)[O-])cc21` (stereo not drawn) [drawing 6; R3=NO2; R5=H], with 1 µg/mL (≈ 3.21 µM).
Consider `CCCCOC(=O)C1OC(C(Cl)(Cl)Cl)Nc2ccccc21` (stereo not drawn) [drawing 9; R1=H; R3=H; R11=n-C4 H9 O . CO, butyl 1,2-dihydro-2-trichloromethyl-4H-benzo[d]-[1,3]-oxazine-4-carboxylate], for which the inhibition at 1 µg/mL stood at 12%.
The same measure, in the same setting: to `CC(C)OC(=O)C1OC(C(Cl)(Cl)Cl)Nc2ccccc21` (stereo not drawn) [drawing 9; R1=H; R3=H; R11=i-C3 H7 O . CO, isopropyl 1,2-dihydro-2-trichloromethyl-4H-benzo[d]-[1,3]-oxazine-4-carboxylate] belongs 37%; to `CN1C(=O)c2ccccc2OC1C(Cl)(Cl)Cl` (stereo not drawn) [drawing 8; R1=H; R3=H; R5=CH3, 3,4-dihydro-3-methyl-2-trichloromethylbenzo[e]-[1,3]-oxazin-4-one], 100%.
`O=C(Nc1ccccc1)C1OC(C(Cl)(Cl)Cl)Nc2ccccc21` (stereo not drawn) [drawing 9; R1=H; R3=H; R11=C6 H5 NH . CO, N-phenyl 1,2-dihydro-2-trichloromethyl-4H-benzo[d]-[1,3]-oxazine-4-carboxamide] yielded an inhibition at 1 µg/mL of 57%.
Consider `CCC(=O)Oc1ccc2c(c1)C(=O)NC(C(Cl)(Cl)Cl)O2` (stereo not drawn) [drawing 6; R3=C2 H5 CO . O; R5=H, 3,4-dihydro-6-propionyloxy-2-trichloromethyl-2H-benzo[e]-[1,3]-oxazin-4-one], for which the IC50 amounted to 0.3 µg/mL (≈ 0.886 µM).
The same measure, in the same setting: to `NC(=O)c1ccc2c(c1)C(=O)NC(C(Cl)(Cl)Cl)O2` (stereo not drawn) [drawing 6; R3=NH2 CO; R5=H, 3,4-dihydro-4-oxo-2-trichloromethyl-2H-benzo[e]-[1,3]-oxazine-6-carboxamide] belongs 0.3 µg/mL (≈ 0.969 µM); to `CN1C(=O)c2ccccc2NC1C(Cl)(Cl)Cl` (stereo not drawn) [drawing 5; R3=H; R5=CH3; R6=H], 1 µg/mL (≈ 3.58 µM); to `COC(=O)c1ccc2c(c1)C(=O)NC(C(Cl)(Cl)Cl)O2` (stereo not drawn) [drawing 6; R3=CH3 O . CO; R5=H, methyl 3,4-dihydro-4-oxo-2-trichloromethyl-2H-benzo[e]-[1,3]-oxazine-6-carboxylate], 3 µg/mL (≈ 9.24 µM).
`O=C(O)C1OC(C(Cl)(Cl)Cl)Nc2ccccc21` (stereo not drawn) [drawing 9; R1=H; R3=H; R11=COOH, 1,2-dihydro-2-trichloromethyl-4H-benzo-[d]-[1,3]-oxazine-4-carboxylic acid] displayed an inhibition at 1 µg/mL of 14%.
